Activity calls are given as the source filed them. The rule behind the calls is not given here.
Columns and labels:
[1] = Cytotoxicity against human HTB26 cells assessed as reduction in cell viability up to 32 ug/ml after 24 hrs by alamar blue dye based assay; conditions: htb26, 24 h
Staphylococcus warneri = assay: Antimicrobial activity against Staphylococcus warneri ATCC 17917 after 22 hrs by CLSI protocol based microbroth dilution assay; format: functional, organism-based
HCT-116 = assay: Cytotoxicity against human HCT-116 cells assessed as reduction in cell viability up to 32 ug/ml after 24 hrs by alamar blue dye based assay; conditions: hct-116, 24 h
MCF7 [2] = assay: Cytotoxicity against human MCF7 cells assessed as reduction in cell viability up to 32 ug/ml after 24 hrs by alamar blue dye based assay; conditions: mcf7, 24 h
Candida albicans = assay: Antimicrobial activity against Candida albicans ATCC 14035 after 22 hrs by CLSI protocol based microbroth dilution assay; format: functional, organism-based
Enterococcus faecium = assay: Antimicrobial activity against vancomycin-resistant Enterococcus faecium EF379 after 22 hrs by CLSI protocol based microbroth dilution assay; format: functional, organism-based
Vero = assay: Cytotoxicity against African green monkey Vero cells assessed as reduction in cell viability up to 32 ug/ml after 24 hrs by alamar blue dye based assay; conditions: chlorocebus sabaeus
Staphylococcus aureus = assay: Antimicrobial activity against methicillin-resistant Staphylococcus aureus ATCC 33591 after 22 hrs by CLSI protocol based microbroth dilution assay; format: functional, organism-based
Proteus vulgaris = assay: Antimicrobial activity against Proteus vulgaris ATCC 12454 after 22 hrs by CLSI protocol based microbroth dilution assay; format: functional, organism-based
[3] = Cytotoxicity against human HTB26 cells assessed as reduction in cell viability after 24 hrs by alamar blue dye based assay; conditions: HTB26, 24 h
MCF7 [4] = assay: Cytotoxicity against human MCF7 cells assessed as reduction in cell viability after 24 hrs by alamar blue dye based assay; conditions: MCF7, 24 h

Compound	Activity [1]	Activity (Staphylococcus warneri)	Activity (HCT-116)	Activity (MCF7 [2])	Activity (Candida albicans)	Activity (Enterococcus faecium)	Activity (Vero)	Activity (Staphylococcus aureus)	Activity (Proteus vulgaris)	IC50 [3]	IC50 (MCF7 [4])
COc1cccc(C(=O)NC(N)=O)c1O	Non-Toxic	inactive	Non-Toxic	Non-Toxic	inactive	inactive	Non-Toxic	inactive	inactive	–	–
CCCCCCCC1=C(C)C(=O)C(=O)c2c1[nH]c1ccccc21	–	inactive	–	–	inactive	inactive	–	inactive	inactive	3.67 µM	3.07 µM

Source: ChEMBL document CHEMBL4665781, “Metabolomic Comparison and Assessment of Co-cultivation and a Heat-Killed Inducer Strategy in Activation of Cryptic Biosynthetic Pathways” (J Nat Prod, 2020)
